System: adult patients with uncontrolled gout
Assay: Health Assessment Questionnaire (HAQ-DI, HAQ pain, HAQ health), open-label study
Type: in vivo, human
Design: key to HAQ-Health, Observed, Median / HAQ-Health, Change from Baseline, Median: 0-100 scale; 0 = very well, 100 = very poor health; key to HAQ-DI, Observed, Median / HAQ-DI, Change from Baseline, Median: HAQ-DI scale 0-3; 0 = no difficulty, 3 = unable to do
Conditions: mITT Population
Protocol: Quality-of-Life Assessment: The HAQ was administered at the Screening and Week −4 or week −6 (prior to the first dose of MTX) Visits during the MTX Run-in Period for the open-label and randomized studies, respectively; prior to pegloticase infusion at the Day 1 and Weeks 14, 24 and 36 Visits or at the Day 1 and weeks 6, 14, 20, 24, 30, 36, and 44 visits during the Pegloticase+IMM Period for the open-label and randomized studies, respectively; at the End of Pegloticase Infusions Visit (if applicable), the Week 52/End of Study/Early Termination Visit and the Post Treatment Periods 3 and 6 Month Follow-up Visits (open-label study). The HAQ-DI is a self-report functional status instrument that can be filled out by a subject in less than 5 minutes and requires 1 minute to score. The index measures disability over the past week by asking a total of 20 questions covering 8 domains of function: dressing and grooming, arising, eating, walking, hygiene, reach, grip, and usual activities. There are at least 2 questions in each domain and the 8 domains represent a comprehensive set of functional activities. The HAQ-DI is calculated by scoring the answer to each question in the HAQ from 0 to 3, with 0 representing the ability to do without any difficulty, and 3 representing inability to do. Any activity that requires assistance from another individual or requires the use of an assistive device raises a 0 or 1 score to a 2. The highest score for each of the 8 domains is summed (range from 0 to 24) and divided by 8 to yield, on a scale with 25 possible values, a Functional Disability Index with a range from 0 to 3. The disability index is based on the number of domains answered and is computed only if the subject completes answers to at least 6 domains. The HAQ pain scale asks subjects to record how much pain they have had in the past week on a scale of 0 to 100, where zero represents “no pain” and 100 represents “severe pain”. The HAQ health scale is a measure of overall health. Subjects are asked to rate how well they are doing on a score of 0 to 100, where zero represents “very well” and 100 represents “very poor” health.

[1] = Early Termination Visit, Methotrexate Baseline
[2] = Early Termination Visit, Pegloticase Baseline
[3] = End of Pegloticase Infusions Visit, Methotrexate Baseline
[4] = End of Pegloticase Infusions Visit, Pegloticase Baseline

pegloticase
HAQ-DI, Change from Baseline, Mean (SD) (Day 1, Methotrexate Baseline): 0.1 (0.27)
HAQ-DI, Change from Baseline, Median (Day 1, Methotrexate Baseline): 0.0
HAQ-DI, Observed, Mean (SD) (Day 1, Methotrexate Baseline): 0.8 (0.77)
HAQ-DI, Observed, Median (Day 1, Methotrexate Baseline): 0.5
HAQ-Health, Change from Baseline, Mean (SD) (Day 1, Methotrexate Baseline): −8.8 (38.29)
HAQ-Health, Change from Baseline, Median (Day 1, Methotrexate Baseline): 10.0
HAQ-Health, Observed, Mean (SD) (Day 1, Methotrexate Baseline): 37.8 (27.06)
HAQ-Health, Observed, Median (Day 1, Methotrexate Baseline): 25.0
HAQ-Pain, Change from Baseline, Mean (SD) (Day 1, Methotrexate Baseline): 2.3 (19.93)
HAQ-Pain, Change from Baseline, Median (Day 1, Methotrexate Baseline): 0.0
HAQ-Pain, Observed, Mean (SD) (Day 1, Methotrexate Baseline): 42.5 (22.24)
HAQ-Pain, Observed, Median (Day 1, Methotrexate Baseline): 40.0
HAQ-DI, Change from Baseline, Mean (SD) [1]: 0.2 (0.90)
HAQ-DI, Change from Baseline, Median [1]: −0.3
HAQ-DI, Observed, Mean (SD) [1]: 0.7 (0.51)
HAQ-DI, Observed, Median [1]: 0.6
HAQ-Health, Change from Baseline, Mean (SD) [1]: −0.7 (16.77)
HAQ-Health, Change from Baseline, Median [1]: 8.0
HAQ-Health, Observed, Mean (SD) [1]: 28.3 (40.72)
HAQ-Health, Observed, Median [1]: 10.0
HAQ-Pain, Change from Baseline, Mean (SD) [1]: 19.0 (36.51)
HAQ-Pain, Change from Baseline, Median [1]: 7.0
HAQ-Pain, Observed, Mean (SD) [1]: 46.7 (40.41)
HAQ-Pain, Observed, Median [1]: 40.0
HAQ-DI, Change from Baseline, Mean (SD) [2]: 0.2 (0.56)
HAQ-DI, Change from Baseline, Median [2]: 0.1
HAQ-DI, Observed, Mean (SD) [2]: 0.7 (0.51)
HAQ-DI, Observed, Median [2]: 0.6
HAQ-Health, Change from Baseline, Mean (SD) [2]: −11.7 (62.52)
HAQ-Health, Change from Baseline, Median [2]: −10.0
HAQ-Health, Observed, Mean (SD) [2]: 28.3 (40.72)
HAQ-Health, Observed, Median [2]: 10.0
HAQ-Pain, Change from Baseline, Mean (SD) [2]: 0.0 (45.83)
HAQ-Pain, Change from Baseline, Median [2]: −10.0
HAQ-Pain, Observed, Mean (SD) [2]: 46.7 (40.41)
HAQ-Pain, Observed, Median [2]: 40.0
HAQ-DI, Change from Baseline, Mean (SD) [3]: −0.1 (0.35)
HAQ-DI, Change from Baseline, Median [3]: −0.1
HAQ-DI, Observed, Mean (SD) [3]: 0.1 (0.18)
HAQ-DI, Observed, Median [3]: 0.1
HAQ-Health, Change from Baseline, Mean (SD) [3]: −80.0 (0.00)
HAQ-Health, Change from Baseline, Median [3]: −80.0
HAQ-Health, Observed, Mean (SD) [3]: 0.0 (0.00)
HAQ-Health, Observed, Median [3]: 0.0
HAQ-Pain, Change from Baseline, Mean (SD) [3]: 2.5 (74.25)
HAQ-Pain, Change from Baseline, Median [3]: 2.5
HAQ-Pain, Observed, Mean (SD) [3]: 40.0 (56.57)
HAQ-Pain, Observed, Median [3]: 40.0
HAQ-DI, Change from Baseline, Mean (SD) [4]: −0.1 (0.35)
HAQ-DI, Change from Baseline, Median [4]: −0.1
HAQ-DI, Observed, Mean (SD) [4]: 0.1 (0.18)
HAQ-DI, Observed, Median [4]: 0.1
HAQ-Health, Change from Baseline, Mean (SD) [4]: −45.0 (49.50)
HAQ-Health, Change from Baseline, Median [4]: −45.0
HAQ-Health, Observed, Mean (SD) [4]: 0.0 (0.00)
HAQ-Health, Observed, Median [4]: 0.0
HAQ-Pain, Change from Baseline, Mean (SD) [4]: 2.5 (74.25)
HAQ-Pain, Change from Baseline, Median [4]: 2.5
HAQ-Pain, Observed, Mean (SD) [4]: 40.0 (56.57)
HAQ-Pain, Observed, Median [4]: 40.0
HAQ-DI, Change from Baseline, Mean (SD) (Week 14, Methotrexate Baseline): −0.2 (0.77)
HAQ-DI, Change from Baseline, Median (Week 14, Methotrexate Baseline): 0.0
HAQ-DI, Observed, Mean (SD) (Week 14, Methotrexate Baseline): 0.5 (0.41)
HAQ-DI, Observed, Median (Week 14, Methotrexate Baseline): 0.5
HAQ-Health, Change from Baseline, Mean (SD) (Week 14, Methotrexate Baseline): −12.5 (36.79)
HAQ-Health, Change from Baseline, Median (Week 14, Methotrexate Baseline): −5.0
HAQ-Health, Observed, Mean (SD) (Week 14, Methotrexate Baseline): 36.6 (33.87)
HAQ-Health, Observed, Median (Week 14, Methotrexate Baseline): 16.5
HAQ-Pain, Change from Baseline, Mean (SD) (Week 14, Methotrexate Baseline): −13.9 (30.48)
HAQ-Pain, Change from Baseline, Median (Week 14, Methotrexate Baseline): −12.5
HAQ-Pain, Observed, Mean (SD) (Week 14, Methotrexate Baseline): 27.1 (26.25)
HAQ-Pain, Observed, Median (Week 14, Methotrexate Baseline): 15.0
HAQ-DI, Change from Baseline, Mean (SD) (Week 14, Pegloticase Baseline): −0.3 (0.80)
HAQ-DI, Change from Baseline, Median (Week 14, Pegloticase Baseline): 0.0
HAQ-DI, Observed, Mean (SD) (Week 14, Pegloticase Baseline): 0.5 (0.41)
HAQ-DI, Observed, Median (Week 14, Pegloticase Baseline): 0.5
HAQ-Health, Change from Baseline, Mean (SD) (Week 14, Pegloticase Baseline): −4.3 (43.82)
HAQ-Health, Change from Baseline, Median (Week 14, Pegloticase Baseline): −1.0

From patent US20220409620A1, “REDUCING IMMUNOGENICITY TO PEGLOTICASE” (Horizon Pharma Rheumatology LLC, priority 2016, published 2022)
